The test system of series [1] is α-glucosidase. Put plainly: in vitro α-glucosidase inhibitory assay (4-nitrophenyl-α-D-glucopyranoside substrate, OD at 405 nm). As to conditions: for α-glucosidase inhibitory activity (result in words): bioactivity screening; for IC50: read-out: IC50 Value, α-glucosidase inhibitory activity, mean ± SD of triplicate experiments, acarbose as positive control.
Experimental: The optimized procedure was as follows: 20 μL of 0.2 U/mL α-glucosidase has been added into 0.1mM potassium phosphate buffer (pH 6.8, 112 μL), then mixed with the testing sample (8 μL). After being preincubated at 37 °C for 15 min, 20 μL of 2.5 mmol/L 4-nitrophenyl-α-D-glucopyranoside was added and then mixed. The reaction was carried out at 37 °C for 15 min and stopped by adding 0.2 M solution of Na2CO3 (80 μL). The optical density values of the reaction mixture were the mean values of three measurements, which were performed at 405 nm wavelength.

In turn, `COC(=O)C(OC(C)=O)C1C2(C)CC3(O)C(OC(=O)C(C)C)(C2OC(C)=O)C2OC4(C)OC5(C(OC(C)=O)C(OC(C)=O)C67CC6(C(OC(C)=O)C(=O)OC7c6ccoc6)C25O4)C13C` (stereo not drawn) [Compound 5, Chukbularisin E] came in with a melting point of 208 to 209 °C. In series [1], the “α-glucosidase inhibitory activity (result in words)” value (“α-glucosidase inhibitory activity” below) is “showed inhibitory activities” and the IC50 was determined as 1090 ± 40 µM.

Take `COC(=O)C(OC(C)=O)C1C2(C)CC3(O)C(O)(C2OC(C)=O)C2OC4(C(C)C)OC5(C(OC(C)=O)C(OC(C)=O)C67CC6(C(OC(C)=O)C(=O)OC7c6ccoc6)C25O4)C13C` (stereo not drawn) [Compound 4, Chukbularisin D]: the melting point is 190 to 191 °C. In addition, in series [1], the “α-glucosidase inhibitory activity” value was “showed inhibitory activities” and the IC50 came to 520 ± 39 µM.

As for `COC(=O)CC1C2(C)CC3(O)C(O)(C2OC(C)=O)C(OC(=O)C(C)C)C24OC5(C)OC(C(OC(C)=O)C67CC62C(OC(=O)C(C)C)C(=O)OC7c2ccoc2)C4(O5)C13C` (stereo not drawn) [Compound 3, Chukbularisin C], the melting point fell in the range of 198 to 199 °C. In series [1], the “α-glucosidase inhibitory activity” value is recorded as “showed inhibitory activities” and the IC50 was found to be 40 ± 2 µM.

The molecule `CC(=O)OC1C2(C)CC34OC5(C)OC6(C7CC(=O)OC(c8ccoc8)C7(C)CCC6(O5)C35OC(=O)CC25)C(OC(=O)C(C)C)C14O` (stereo not drawn) [Compound 2, Chukbularisin B] came in with a melting point of 185 to 186 °C. In addition, in series [1], the “α-glucosidase inhibitory activity” value is given as “showed inhibitory activities” and the IC50 amounted to 60 ± 8 µM.

With `CC(=O)OC(C1=CC(O)OC1=O)C1(C)C(OC(C)=O)C(OC(C)=O)C2(O)C34OC(C)(CC13)OC4C1(OC(C)=O)C(OC(C)=O)C3(C)CC1(O)C21COC(=O)CC31` (stereo not drawn) [Compound 1, Chukbularisin A], the melting point was 201 to 203 °C.

With `COC(=O)C(OC(C)=O)C1C2(C)CC34OC5(C)OC6(C(O)C(OC(C)=O)C78CC7(C(OC(C)=O)C(=O)OC8c7ccoc7)C6(O5)C(OC(=O)C(C)C)C3(O)C2OC(C)=O)C14C` (stereo not drawn) [Compound 8, chubularisin K], in series [1], the “α-glucosidase inhibitory activity” value is given as “showed inhibitory activities” and the IC50 came out at 200 ± 57 µM.

Values taken from paper PMC6274087, “New Phragmalin-Type Limonoids from Chukrasia tabularis and Their α-Glucosidase Inhibitory Activity” (Molecules, 2016).
